The record followed here is ChEMBL document CHEMBL1145001, “Angiotensin II AT1 receptor antagonists. Clinical implications of active metabolites” (J Med Chem, 2003).

In data set [1] the target is T1, Type-1 angiotensin II receptor (Homo sapiens) (UniProt P30556).
T1 sequence (whole entry): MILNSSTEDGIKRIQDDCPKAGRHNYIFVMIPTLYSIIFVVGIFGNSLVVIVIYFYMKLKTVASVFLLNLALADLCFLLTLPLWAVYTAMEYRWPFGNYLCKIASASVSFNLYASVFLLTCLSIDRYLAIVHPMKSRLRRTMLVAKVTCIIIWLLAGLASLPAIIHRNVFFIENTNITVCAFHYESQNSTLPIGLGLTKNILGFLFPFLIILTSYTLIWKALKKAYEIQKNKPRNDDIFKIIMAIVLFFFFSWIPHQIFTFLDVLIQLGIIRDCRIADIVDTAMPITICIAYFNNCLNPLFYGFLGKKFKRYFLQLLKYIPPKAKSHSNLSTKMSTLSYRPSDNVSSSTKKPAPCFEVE
The data set is described as follows: Relative binding affinity of compound to Angiotensin II receptor, type 1 was determined.

A short description of data set [2]: Acid dissociation value was evaluated. Type of data set: ADME.
Data set [3] is described as follows: Inhibition of bovine cAMP phosphodiesterase. On the set-up: species or system Bos taurus.
Data set [4] in a line: Renal clearance value was evaluated. In kind it is ADME, organism-based, Kidney. The conditions noted are these: in vivo.
Data set [5] deals with T1, Type-1 angiotensin II receptor (Homo sapiens). The data set is described as follows: Inhibition against Angiotensin II receptor, type 1.
Data set [6] in a line: Half life of compound was determined. In kind it is ADME.
Data set [7] in a line: Total clearance value was evaluated. In kind it is ADME, organism-based. Particulars: in vivo.
The target of data set [8] is T2, Type-1 angiotensin II receptor (Homo sapiens, UniProt P30556).
T2 sequence (P30556 whole entry): T1 sequence (whole entry)
The data set is described as follows: Compound was tested for inhibition against Angiotensin II receptor, type 1.

Data set [9] can be described thus: Acid dissociation constant was evaluated. In kind it is ADME.
A short description of data set [10]: Effective concentration of compound to stimulate 300% increase of growth hormone secretion. In kind it is functional.
Data set [11] in a line: Absolute bioavailability of compound was determined. In kind it is ADME, organism-based. Particulars: in vivo; read-out: Bioavailabiility.
Data set [12] has as its target T2, Type-1 angiotensin II receptor. The data set is described as follows: Inhibition constant against Angiotensin II receptor, type 1 was determined.
A short description of data set [13]: Inhibition of Phosphodiesterase 4.
Data set [14] is described as follows: Inhibition of calcium calmodulin-dependent cGMP-Phosphodiesterase 1.
In the next data set the target is Phosphodiesterase 3 (Homo sapiens, UniProt Q14432+Q13370). The data set is described as follows: Inhibition of phosphodiesterase 3(PDE 3). Type of data set: protein assay.
Another data set deals with Phosphodiesterase 4 (Homo sapiens, UniProt P27815+Q08499+Q07343+Q08493). The data set is described as follows: Inhibition of phosphodiesterase 4 (PDE 4). Type of data set: protein assay.

Broadly, the pKa is the pH at which an ionisable group is half protonated. Low values mean a group that gives up its proton readily, high ones a group that holds its proton tightly. By IC50 is commonly meant the concentration needed to halve the response being measured. Usually half-life stands for the time needed for the level to fall by half in the phase considered. Read a high half-life as slow decline. For `CCCCc1nc(Cl)c(C(=O)O)n1Cc1ccc(-c2ccccc2-c2nn[nH]n2)cc1` [CARBOXYLIC ACID METABOLITE], in [1], the Relative binding affinity came out at 10. In [2], this compound had a pKa of 2.8. Moreover, 38900 nM corresponded to half-maximal inhibition in data set [3] (IC50). Besides, the CL_renal in [4] was found to be 0.4 mL/s. Moreover, the AT1 affinity in [5] was found to be 1.3 nM l-1. In addition, the half-life in [6] is 4.4 h. The compound also registered a CLtotal in data set [7] of 0.78 mL/s.
Turning to `Cc1nc(C)c2c(O)cc(=O)n(Cc3ccc(-c4ccccc4-c4nnn[nH]4)cc3)c2n1` [ENOLTASOSARTAN], in [8], half-maximal inhibition (IC50) was put at 0.17 nM. For the same compound, the pKa in data set [9] turned out to be 9.4.
Usually EC50 stands for the concentration at which the effect is half-maximal. A higher EC50 goes with lower potency in that assay. The compound `CNC(=O)NCc1ccccc1-c1ccc(CN2C(=O)[C@H](NC(=O)CC(C)(C)N)CCc3ccccc32)cc1` showed an EC50 in data set [10] of 3 nM.
`CCOc1nc2cccc(C(=O)O)c2n1Cc1ccc(-c2ccccc2-c2nnn[nH]2)cc1`: the Relative binding affinity in data set [1] turned out to be 1. In data set [2], this compound registered a pKa of 3.9. The compound further had a CL_renal in data set [4] greater than 7 mL/s. The AT1 affinity in [5] was determined as 0.1 nM l-1. Further, in [6], the half-life is greater than 9 h. Also, the CLtotal in data set [7] stood at 1 mL/s.
Regarding `CCCCc1nc(Cl)c(CO)n1Cc1ccc(-c2ccccc2-c2nn[nH]n2)cc1` [LOSARTAN POTASSIUM], the pKa in [2] amounted to 4.9.
In data set [1], `CCCc1nc2c(C)cc(-c3nc4ccccc4n3C)cc2n1Cc1ccc(-c2ccccc2C(=O)O)cc1` came in with a Relative binding affinity of 10. Moreover, the bioavailability in data set [11] was 43%. In data set [2], the pKa was 4.5. For the same compound, the CL_renal in [4] is less than 5 mL/s. Besides, in data set [5], the AT1 affinity was found to be 1 nM l-1. In data set [6], this compound returned a half-life greater than 20 h. Further, the CLtotal in data set [7] stood at 19 mL/s.
In general, Ki refers to the equilibrium dissociation constant of an inhibitor or competing ligand from its target. The low end stands for tighter binding, the high end for weaker binding. For `CC(O)CCC(=O)N(c1ccc(-c2ccccc2-c2nnn[nH]2)cc1)[C@H](C(=O)O)C(C)C` (stereo partly drawn), the IC50 in data set [8] is 470 nM. Further, the Ki in data set [12] was 370 nM.
Consider `CCCCc1nc(Cl)c(CO)n1Cc1ccc(-c2ccccc2-c2nnn[n-]2)cc1.[K+]` [LOSARTAN POTASSIUM], for which the Relative binding affinity in data set [1] turned out to be 50. In addition, the IC50 in data set [13] amounted to 26000 nM; in [3] it was 139000 nM; in data set [14], 100000 nM. In data set [4], the CL_renal amounted to 1.1 mL/s. Besides, the AT1 affinity in [5] turned out to be 6.4 nM l-1. Besides, the half-life in [6] is 1.5 h. Moreover, in [7], the CLtotal is 10 mL/s.
For the compound `Cc1nc(C(=O)O)nc2c1CCC(=O)N2Cc1ccc(-c2ccccc2-c2nnn[nH]2)cc1`, in data set [8], the IC50 is 11 nM.
`CCCCC(=O)N(Cc1ccc(-c2ccccc2-c2nnn[nH]2)cc1)[C@H](C(=O)O)C(C)C` came in with a pKa in [2] of 3.1. This compound also came in with a CL_renal in data set [4] of 4.8 mL/s. The same compound gave an AT1 affinity in data set [5] of 1.4 nM l-1. For the same compound, the half-life in data set [6] is 6.1 h. The compound also gave a CLtotal in data set [7] of 37 mL/s.
For the compound `CCCCc1nc(SCc2ccc(-c3ccccc3-c3nn[nH]n3)cc2)c2ccccc2n1`, the IC50 worked out at 8000 nM against Phosphodiesterase 3 and 2900 nM at Phosphodiesterase 4.
As for `CCCCc1nc(Cl)c(C=O)n1Cc1ccc(-c2ccccc2-c2nn[nH]n2)cc1`, in [2], the pKa came out at 4. In addition, the AT1 affinity in data set [5] worked out at 20 nM l-1.
As for `CCCCc1ncc(/C=C(\Cc2cccs2)C(=O)O)n1Cc1ccc(C(=O)O)cc1` [EPROSARTAN], the Relative binding affinity in data set [1] was 100. In [2], the pKa worked out at 4. Further, the CL_renal in data set [4] was determined as 0.6 mL/s. In data set [5], this compound returned an AT1 affinity of 1.5 nM l-1. In [6], this compound showed a half-life of 5 h. The compound also showed a CLtotal in data set [7] of 2.5 mL/s.
With `O=C(O)c1nc(CO)nc2c1CCC(=O)N2Cc1ccc(-c2ccccc2-c2nn[nH]n2)cc1`, the IC50 in data set [8] is 44 nM.
On to `CCOc1nc2cccc(C(=O)OC(C)OC(=O)OC3CCCCC3)c2n1Cc1ccc(-c2ccccc2-c2nn[nH]n2)cc1` (stereo not drawn), for which, in [1], the AT1 affinity was 280.
In data set [1], `Cc1nc(C)c2c(n1)N(Cc1ccc(-c3ccccc3-c3nnn[nH]3)cc1)C(=O)CC2` [TASOSARTAN] came in with a Relative binding affinity of 20. This compound showed a pKa in [2] of 4. Further, the AT1 affinity in [5] is 1.2 nM l-1. For the same compound, the half-life in data set [6] is 11 h. In addition, the IC50 in data set [8] came to 32 nM.
For the compound `CC(C)(N)CC(=O)N[C@@H]1CCc2ccccc2N(Cc2ccc(-c3ccccc3-c3nn[nH]n3)cc2)C1=O`, in data set [10], it took 3 nM to reach a half-maximal effect (EC50).
`CCCCC1=NC2(CCCC2)C(=O)N1Cc1ccc(-c2ccccc2-c2nnn[nH]2)cc1` [IRBESARTAN] showed a pKa in data set [2] of 4.7. In [4], this compound gave a CL_renal of 0.02 mL/s. Also, in data set [5], the AT1 affinity is 1.3 nM l-1. Moreover, the half-life in [6] was 10 h. The CLtotal in [7] is 5.1 mL/s.
